The target in the assay is T1, human CXCR3 (N-delta 4) (Homo sapiens, UniProt P49682).
T1 construct: CD8 leader (N); Flag tag; expressed in transfected cells; membranes
T1 sequence (P49682 5-368 limits assumed): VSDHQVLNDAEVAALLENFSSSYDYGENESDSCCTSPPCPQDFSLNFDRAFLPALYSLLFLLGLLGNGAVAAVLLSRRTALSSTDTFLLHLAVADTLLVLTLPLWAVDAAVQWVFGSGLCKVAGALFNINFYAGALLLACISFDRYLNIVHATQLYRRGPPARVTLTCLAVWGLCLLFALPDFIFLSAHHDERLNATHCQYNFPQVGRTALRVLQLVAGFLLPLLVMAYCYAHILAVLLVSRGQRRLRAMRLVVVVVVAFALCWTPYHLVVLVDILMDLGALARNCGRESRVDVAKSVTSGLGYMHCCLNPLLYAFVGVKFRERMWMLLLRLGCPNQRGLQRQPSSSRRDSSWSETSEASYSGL
The experiment in a line: Human CXCR3 (N-delta 4) Scintillation Proximity Assay (SPA), [125I] IP-10 binding. Particulars: IC50 rating; [125I] IP-10 displacement, Ba/F3-hCXCR3 (N-delta 4) membranes. In outline:
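Membranes from Ba/F3 cells stably expressing Flag-tagged human CXCR3 (N-delta 4), 2 μg per point, precoupled 1 h to WGA SPA beads in HEPES buffer with CaCl2, MgCl2, NaCl, 1.0% BSA. Compounds titrated with 25 pM [125I] IP-10; bound label counted after 3 hr at room temperature.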
On the technique in general: Scintillation proximity formats need no separation of bound from free tracer.

Regarding `CC[C@H]1CN(c2ncc(-c3ncc[nH]3)cc2Cl)CCN1C1CCN(C(C)c2ccc(N3CCOCC3)cc2)CC1` (stereo partly shown) [Compound 139], the 50% inhibitory concentration (IC50) (as a rule, the concentration that inhibits the measured activity by half) was more than 100 nM.
Next, `CC[C@H]1CN(c2ncc(-c3ncco3)cc2Cl)CCN1C1CCN(Cc2ccc(Cl)cc2F)CC1` [Compound 140]: more than 100 nM.
`CC[C@H]1CN(c2ncc(-c3nnc(C(C)(C)OC(C)=O)o3)cc2Cl)CCN1C1CCN(Cc2ccc(Cl)cc2F)CC1` [Compound 141] returned an IC50 of more than 100 nM.
Then `CC[C@H]1CN(c2ncc(-c3ncc[nH]3)cc2Cl)CCN1C1CCN(C(=O)c2ccc(C#CC(C)(C)NC(=O)OC(C)(C)C)cc2)CC1` [Compound 142], with more than 100 nM; and `CC[C@H]1CN(c2ncc(-c3ncc[nH]3)cc2Cl)CCN1C1CCN(Cc2ccc(C#CC(C)(C)NS(=O)(=O)NC(=O)OC(C)(C)C)cc2)CC1` [Compound 143], with more than 100 nM; and `CC[C@H]1CN(c2ncc(-c3ncon3)cc2Cl)CCN1C1CCN(Cc2ccc(Cl)cc2F)CC1` [Compound 144], with more than 100 nM.
Next, `CC[C@H]1CN(c2ncc(-c3nccn3C(c3ccccc3)(c3ccccc3)c3ccccc3)cc2Cl)CCN1C1CCN(Cc2ccc(Cl)cc2F)CC1` [Compound 145]: more than 100 nM; `CC[C@H]1CN(c2ncc(C3=NCCN3C(=O)c3ccc(Cl)cc3)cc2Cl)CCN1C1CCN(C(=O)c2ccc(Cl)cc2)CC1` [Compound 146]: more than 100 nM.
Next, `CC[C@H]1CN(c2ncc(C3=NCCN3)cc2Cl)CCN1C1CCN(Cc2ccc(C#CC(C)(C)NS(=O)(=O)NC(=O)OC(C)(C)C)cc2)CC1` [Compound 147]: more than 100 nM; `CC[C@H]1CN(c2ncc(-c3ncc[nH]3)cc2Cl)CCN1C1CCN(Cc2ccc(C(N)=O)cc2)CC1` [Compound 148]: more than 100 nM.
`CC[C@H]1CN(c2ncc(-c3ncc[nH]3)cc2Cl)CCN1C1CCN([C@H](C(=O)NC2CC2)c2ccc(Cl)cc2)CC1` [Compound 149] came in with an IC50 of more than 100 nM.
Next, `CC[C@H]1CN(c2ncc(-c3ncc[nH]3)cc2Cl)CCN1C1CCN([C@H](C(=O)N(C)C)c2ccc(Cl)cc2)CC1` [Compound 150]: more than 100 nM; `CC[C@H]1CN(c2ncc(-c3ncc[nH]3)cc2Cl)CCN1C1(C)CCN(Cc2ccc(Cl)cc2C(=O)OC)CC1` [Compound 151]: more than 100 nM; `CC[C@H]1CN(c2ncc(C3=NCCN3)cc2Cl)CCN1C1CCN(Cc2ccc(C3CC3C(C)(C)O)cc2)CC1` (stereo partly shown) [Compound 152]: more than 100 nM.
On to `CC[C@H]1CN(c2ncc(C3=NCCN3)cc2Cl)CCN1C1CCN(Cc2ccc(C3CC3CO)cc2)CC1` (stereo partly shown) [Compound 153], for which the IC50 was more than 100 nM.
Next, `CC[C@H]1CN(c2ncc(-c3ncc[nH]3)cc2Cl)CCN1C1CCN(C(=O)C2(c3ccc(Cl)cc3)CC2)CC1` [Compound 154]: more than 100 nM; `CC[C@H]1CN(c2ncc(-c3ncc[nH]3)cc2Cl)CCN1C1CCN([C@H](C(=O)NCC(F)(F)F)c2ccc(Cl)cc2)CC1` [Compound 155]: more than 100 nM; `CC[C@H]1CN(c2ncc(-c3ncc[nH]3)cc2Cl)CCN1C1CCN(C(=O)c2ccc(-n3ccnc3)cc2)CC1` [Compound 156]: more than 100 nM.
Next, `CC[C@H]1CN(c2ncc(-c3ncc[nH]3)cc2Cl)CCN1C1CCN(C(=O)c2ccc(-n3ccc(C(F)(F)F)n3)cc2)CC1` [Compound 157]: more than 100 nM.
Then `CCOC1(C)NN=C(c2cnc(N3CCN(C4CCN(C(=O)c5ccc(Br)cc5)CC4)[C@@H](CC)C3)c(Cl)c2)O1` (stereo partly shown) [Compound 158], with more than 100 nM; and `CC[C@H]1CN(c2ncc(-c3ncc[nH]3)cc2Cl)CCN1C1CCN([C@H](C(=O)NCC2CC2)c2ccc(Cl)cc2)CC1` [Compound 159], with more than 100 nM.
Compound `CC[C@H]1CN(c2ncc(-c3noc(=O)[nH]3)cc2Cl)CCN1C1CCN(Cc2ccc(Cl)cc2F)CC1` [Compound 160] showed a half-maximal inhibitory concentration (IC50) of more than 100 nM.
`CC[C@H]1CN(c2ncc(C3=NCCN3C(=O)c3ccc(C#N)cc3)cc2Cl)CCN1C1CCN(C(=O)c2ccc(C#N)cc2)CC1` [Compound 161]: the IC50 was more than 100 nM.
Next, `CC[C@H]1CN(c2ncc(-c3ncc[nH]3)cc2Cl)CCN1C1CCN(Cc2ccc(C(=O)O)cc2)CC1` [Compound 162]: more than 100 nM; `CC[C@H]1CN(c2ncc(-c3nc(C(O)C(F)(F)F)cn3C(O)C(F)(F)F)cc2Cl)CCN1C1CCN(C(=O)c2ccc(Cl)cc2)CC1` (stereo partly shown) [Compound 163]: more than 100 nM.
Next, `CC[C@H]1CN(c2ncc(-c3ncc[nH]3)cc2Cl)CCN1C1CCN(CC(=O)c2ccc(Cl)cc2)CC1` [Compound 164]: more than 100 nM; `CC[C@H]1CN(c2ncc(-c3nccn3CCC(=O)c3ccc(Cl)cc3)cc2Cl)CCN1C1CCN(CCC(=O)c2ccc(Cl)cc2)CC1` [Compound 165]: more than 100 nM.
Regarding `CC[C@H]1CN(c2ncc(-c3ncc[nH]3)cc2Cl)CCN1C1CCN([C@H](C(=O)NC)c2ccc(Cl)cc2)CC1` [Compound 166], the concentration for half-maximal inhibition (IC50) was more than 100 nM.
Compound `CC[C@H]1CN(c2ncc(-c3cnc(N)s3)cc2Cl)CCN1C1CCN(C(=O)c2ccc(Cl)cc2)CC1` [Compound 167] returned an IC50 of more than 100 nM.
Next, `CC[C@H]1CN(c2ncc(-c3ncc[nH]3)cc2Cl)CCN1C1CCN(C(=O)c2ccc(C#CC(C)(C)NS(N)(=O)=O)cc2)CC1` [Compound 168]: more than 100 nM; `CC[C@H]1CN(c2ncc(-c3nnn[nH]3)cc2Cl)CCN1C1CCN(Cc2ccc(Cl)cc2F)CC1` [Compound 169]: more than 100 nM.
Then `CC[C@H]1CN(c2ncc(-c3ncc[nH]3)cc2Cl)CCN1[C@@H]1CCN(Cc2ccc(Cl)cc2C(=O)NC)C[C@H]1O` [Compound 170], with more than 100 nM; and `CC[C@H]1CN(c2ncc(-c3ncc[nH]3)cc2Cl)CCN1C1CCN(C(=O)c2ccc(C#CC(C)(C)NS(C)(=O)=O)cc2)CC1` [Compound 171], with more than 100 nM.
Next, `CC[C@H]1CN(c2ncc(-c3ncc[nH]3)cc2Cl)CCN1[C@H]1CCN(Cc2ccc(Cl)cc2C(=O)NC)C[C@@H]1O` [Compound 172]: more than 100 nM; `CC[C@H]1CN(c2ncc(-c3ncc[nH]3)cc2Cl)CCN1C1CCN(C(=O)c2ccc(N3CCCC3=O)cc2)CC1` [Compound 173]: more than 100 nM; `CC[C@H]1CN(c2ncc(-c3nnc(N)o3)cc2C)[C@H](C)CN1C1CCN(Cc2ccc(OC(F)(F)F)cc2)CC1` [Compound 174]: less than 25 nM.
`CC[C@H]1CN(c2ncc(-c3nnc(N)o3)cc2C(F)(F)F)[C@H](C)CN1C1CCN(Cc2ccc(OC(F)(F)F)cc2)CC1` [Compound 175] displayed an IC50 of less than 25 nM.
